ChEMBL document CHEMBL4411290, “Rogersonins A and B, Imidazolone N-Oxide-Incorporating Indole Alkaloids from a verG Disruption Mutant of Clonostachys rogersoniana” (J Nat Prod, 2019)
Calls of active or inactive are those of the source.

Experiments:
Type in all cases: functional, cell-based
[1] = tested on: SH-SY5Y; experiment: Cytotoxicity against human SH-SY5Y cells assessed as reduction in cell viability at 50 uM incubated for 48 hrs by MTS assay
[2] = tested on: HepG2; experiment: Cytotoxicity against human HepG2 cells assessed as reduction in cell viability at 50 uM incubated for 48 hrs by MTS assay
[3] = tested on: HOS; experiment: Cytotoxicity against human HOS cells assessed as reduction in cell viability at 50 uM incubated for 48 hrs by MTS assay
[4] = tested on: T-24; experiment: Cytotoxicity against human T24 cells assessed as reduction in cell viability at 50 uM incubated for 48 hrs by MTS assay
[5] = tested on: HeLa; experiment: Cytotoxicity against human HeLa cells assessed as reduction in cell viability at 50 uM incubated for 48 hrs by MTS assay
[6] = tested on: ACHN; experiment: Cytotoxicity against human ACHN cells assessed as reduction in cell viability at 50 uM incubated for 48 hrs by MTS assay
[7] = tested on: A549; experiment: Cytotoxicity against human A549 cells assessed as reduction in cell viability at 50 uM incubated for 48 hrs by MTS assay

Measured: Activity

CC1=[N+]([O-])[C@](Cc2c[nH]c3ccccc23)([C@H](CC(=O)[C@H](C)O)C(=O)O[C@@H](C)CC[C@@H]2C=CC(=O)O2)NC1=O
inactive: all assays above

CC1=[N+]([O-])[C@](Cc2c[nH]c3ccccc23)([C@H]2CC(=O)[C@@H](C)OC(=O)/C=C/[C@@H](O)CC[C@@H](C)OC2=O)NC1=O
inactive: all assays above
